Laboratory results: patent US20120077814A1, “SULFONAMIDE, SULFAMATE, AND SULFAMOTHIOATE DERIVATIVES” (priority 2010, published 2012)
pIC50: −log10 of the molar value.

Assays:
[1] = system: HCT-116 cell proliferation; assay: Cell proliferation assay (HCT-116); assay type: cell-based; conditions: Homo sapiens; HCT-116 cells; read-out: Activity (range of inhibitory activity against HCT-116 cell proliferation, IC50)
Protocol: A panel of cancer cell lines is obtained from ATCC (Rockville, Md.). Cell cultures are maintained in Hyclone DMEM/F12 medium (Logan, Utah) supplemented with 10% fetal bovine serum and 15 mM HEPES buffer, final pH 7.2, at 37° C. with a 5% CO2 atmosphere. Cultures are maintained at sub-confluent densities.
For proliferation assays, cells are seeded into 96 well plates at 1,000-5,000 cells per well, depending on the cell line, and are incubated overnight. The following day, test compound, DMSO solution (negative control), or Actinomycin D (positive control) is added to the appropriate wells as 10× concentrated stocks prepared in phosphate buffered saline. The cell plates are then incubated for an additional 2-6 days, depending on the cell line, to allow proliferation to occur. To measure cell growth in adherent cultures, DNA amounts are measured in each well using the CyQuant DNA determination kit (Invitrogen, Carlsbad, Calif.) following the recommended protocol. Measurement of cell growth in suspension cultures is done by use of Celltiter Reagent (Promega, Madison, Wis.) at the end of treatment, following the recommended protocol. The percentage of cell growth is determined by comparing the cell growth in the presence of test compounds to the cells treated with DMSO vehicle (control, 100% growth) and cells treated with Actinomycin D ([…], 0% growth). […]

[2] = target: T1, recombinant human NAE enzyme (NEDD8 Activating Enzyme) (Homo sapiens, UniProt Q8TBC4); assay: E1-activating enzyme assay, time-resolved fluorescence energy transfer (NAE); assay type: biochemical; conditions: 0.5 nM recombinant human NAE, 100 μM ATP; read-out: Activity (range of inhibitory activity on NAE, IC50)
T1 sequence (Q8TBC4 1-463): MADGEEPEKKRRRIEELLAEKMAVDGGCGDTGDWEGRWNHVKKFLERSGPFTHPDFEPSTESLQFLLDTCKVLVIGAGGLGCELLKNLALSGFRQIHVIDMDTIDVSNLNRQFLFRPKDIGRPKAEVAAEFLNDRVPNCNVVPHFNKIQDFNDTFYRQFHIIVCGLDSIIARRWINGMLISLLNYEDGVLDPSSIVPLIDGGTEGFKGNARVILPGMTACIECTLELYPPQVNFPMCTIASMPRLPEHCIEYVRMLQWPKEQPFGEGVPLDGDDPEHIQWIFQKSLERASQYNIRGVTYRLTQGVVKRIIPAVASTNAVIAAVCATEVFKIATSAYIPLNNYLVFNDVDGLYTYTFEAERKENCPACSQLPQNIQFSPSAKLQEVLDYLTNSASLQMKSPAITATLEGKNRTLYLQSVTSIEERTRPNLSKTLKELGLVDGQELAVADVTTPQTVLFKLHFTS
T1 sequence (Q13564 1-534 partner): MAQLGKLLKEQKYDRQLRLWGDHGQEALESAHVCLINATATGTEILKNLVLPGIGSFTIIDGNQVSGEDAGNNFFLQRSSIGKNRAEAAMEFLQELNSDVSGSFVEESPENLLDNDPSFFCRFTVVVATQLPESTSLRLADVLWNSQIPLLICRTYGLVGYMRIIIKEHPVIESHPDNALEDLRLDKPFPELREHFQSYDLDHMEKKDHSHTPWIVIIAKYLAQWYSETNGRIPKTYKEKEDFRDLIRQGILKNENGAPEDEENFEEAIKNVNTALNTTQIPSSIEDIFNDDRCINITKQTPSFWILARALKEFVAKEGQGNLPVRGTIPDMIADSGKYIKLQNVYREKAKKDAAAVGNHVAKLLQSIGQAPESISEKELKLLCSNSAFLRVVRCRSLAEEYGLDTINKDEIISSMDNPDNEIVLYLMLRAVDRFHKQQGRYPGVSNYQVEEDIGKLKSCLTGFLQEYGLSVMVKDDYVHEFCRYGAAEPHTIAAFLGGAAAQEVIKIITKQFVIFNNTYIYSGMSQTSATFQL
Protocol: A time-resolved fluorescence energy transfer assay format is used to measure the in vitro activity of NEDD8 Activating Enzyme (NAE). The enzymatic reaction is performed in a total volume of 50 μL, containing 50 mM HEPES, pH 7.5, 0.05% BSA, 5 mM MgCl2, 100 μM ATP, 10 nM Ubc12-GST, 75 nM NEDD8-Flag and 0.5 nM recombinant human NAE enzyme. The reaction mixture is incubated with and without compound inhibitor at 24° C. for 30 min in a 96 half-well plate. The reaction is then terminated with 25 μL of stop/detection buffer (0.1 M HEPES, pH 7.5, 0.05% Tween20, 20 mM EDTA, 410 mM KF, 81.8 ng/mL Europium-Cryptate-labelled monoclonal Flag-M2-specific antibody (CisBio International) and 8.125 μg/mL PHYCOLINK allophycocyanin (XL-APC)-labelled GST-specific antibody (Prozyme)). After incubation for 2 hours at 24° C., the plate is read on a Tecan Infinite M1000 instrument using a time-resolved fluorescence method. A similar assay protocol is used to measure other E1 enzymes. For the Sumo Activating Enzyme (SAE) assay everything is conducted as described for NAE except that Ubc12-GST and NEDD8-Flag are replaced with 10 nM Ubc9-GST and 125 nM Sumo-Flag respectively, and recombinant human SAE (0.6 nM) replaced NAE. The Ubiquitin Activating Enzyme (UAE) assay is performed as described for NAE except Ubc12-GST, NEDD8-Flag, and NAE are replaced with 5 nM Ubc2-GST, 125 nM UBB-Flag, and 1.5 nM UAE respectively.
Compounds of the disclosure are inhibitors of NAE. Several exemplary compounds useful in the methods of the disclosure are listed below.

SMILES	pIC50 [1]	pIC50 [2]
NS(=O)(=O)OC[C@H]1O[C@@H](c2ccc3c(N[C@H]4CCc5ccccc54)ncnn23)CC1=O [Compound 1, [(2R,5R)-5-[4-[[(1S)-indan-1-yl]amino]pyrrolo[2,1-f][1,2,4]triazin-7-yl]-3-oxo-tetrahydrofuran-2-yl]methyl sulfamate]	4.30 to 5.30	4.30 to 5.30
NS(=O)(=O)OC[C@H]1O[C@@H](c2csc3c(N[C@H]4CCc5ccccc54)ncnc23)C[C@@H]1O [Compound 10, ((2R,3S,5R)-5-(4-((S)-2,3-dihydro-1H-inden-1-ylamino)thieno[3,2-d]pyrimidin-7-yl)-3-hydroxytetrahydrofuran-2-yl)methyl sulfamate]	5.30 to 6.30	5.30 to 6.30
NS(=O)(=O)OC[C@H]1C[C@H](c2ccc3c(N[C@H]4CCc5ccccc54)ncnn23)C[C@@H]1OS(N)(=O)=O [Compound 19, [2-[(aminosulfonyl)oxy]-4-{4-[2,3-dihydro-1H-inden-1-ylamino]pyrrolo[2,1-f][1,2,4]triazin-7-yl}cyclopentyl]methyl sulfamate]	4.30 to 5.30	4.30 to 5.30
NS(=O)(=O)OC[C@H]1O[C@@H](c2csc3c(NCc4ccccc4)ncnc23)[C@H](O)[C@@H]1O [Compound 25, (5-(4-(benzylamino)thieno[3,2-d]pyrimidin-7-yl)-3,4-dihydroxytetrahydrofuran-2-yl)methyl sulfamate]	5.30 to 6.30	
NS(=O)(=O)OC[C@H]1O[C@@H](c2csc3c(NCc4ccccc4Cl)ncnc23)[C@H](O)[C@@H]1O [Compound 30, (5-(4-(2-chlorobenzylamino)thieno[3,2-d]pyrimidin-7-yl)-3,4-dihydroxytetrahydrofuran-2-yl)methyl sulfamate]		5.30 to 6.30
NS(=O)(=O)OC[C@H]1O[C@@H](c2coc3c(NCc4ccc(Cl)cc4Cl)ncnc23)[C@H](O)[C@@H]1O [Compound 34, (5-(4-(2,4-dichlorobenzylamino)furo[3,2-d]pyrimidin-7-yl)-3,4-dihydroxytetrahydrofuran-2-yl)methyl sulfamate]	4.30 to 5.30	
NS(=O)(=O)OC[C@H]1O[C@@H](c2coc3c(NCc4ccc(Cl)c(C(F)(F)F)c4)ncnc23)[C@H](O)[C@@H]1O [Compound 35, (5-(4-(4-chloro-3-(trifluoromethyl)benzylamino)furo[3,2-d]pyrimidin-7-yl)-3,4-dihydroxytetrahydrofuran-2-yl)methyl sulfamate]		5.30 to 6.30
NS(=O)(=O)OC[C@H]1O[C@@H](c2csc3c(NCc4cccc(Cl)c4)ncnc23)[C@H](O)[C@@H]1O [Compound 37, (5-(4-(3-chlorobenzylamino)thieno[3,2-d]pyrimidin-7-yl)-3,4-dihydroxytetrahydrofuran-2-yl)methyl sulfamate]		5.30 to 6.30

Second part, the compound after the results:

pIC50 [1]	pIC50 [2]	SMILES
5.30 to 6.30	5.30 to 6.30	Nc1ncnc2c([C@@H]3O[C@H](COS(N)(=O)=O)[C@@H](O)[C@H]3O)[nH]nc12 [Compound 3, [(2R,3S,4R,5S)-5-(7-amino-1H-pyrazolo[4,3-d]pyrimidin-3-yl)-3,4-dihydroxy-tetrahydrofuran-2-yl]methyl sulfamate]
> 6.30	> 6.30	Nc1ncnc2c([C@@H]3O[C@H](COS(N)(=O)=O)[C@@H](O)[C@H]3O)csc12 [Compound 4, [(2R,3S,4R,5S)-5-(4-aminothieno[3,2-d]pyrimidin-7-yl)-3,4-dihydroxy-tetrahydrofuran-2-yl]methyl sulfamate]
5.30 to 6.30	> 6.30	NS(=O)(=O)OC[C@H]1O[C@@H](c2csc3c(NCc4ccc(Cl)cc4)ncnc23)[C@H](O)[C@@H]1O [Compound 6, ((2R,3S,4R,5S)-5-(4-(4-chlorobenzylamino)thieno[3,2-d]pyrimidin-7-yl)-3,4-dihydroxytetrahydrofuran-2-yl)methyl sulfamate]
> 6.30	5.30 to 6.30	Nc1ncnc2c([C@@H]3O[C@H](COS(N)(=O)=O)[C@@H](O)[C@H]3O)coc12 [Compound 11, ((2R,3S,4R,5S)-5-(4-aminofuro[3,2-d]pyrimidin-7-yl)-3,4-dihydroxytetrahydrofuran-2-yl)methyl sulfamate]
4.30 to 5.30		Nc1ncnc2c([C@@H]3O[C@H](COS(N)(=O)=O)[C@@H](O)[C@H]3O)cnn12 [Compound 13, ((2R,3S,4R,5S)-5-(4-aminopyrazolo[1,5-a][1,3,5]triazin-8-yl)-3,4-dihydroxytetrahydrofuran-2-yl)methyl sulfamate]
4.30 to 5.30		NS(=O)(=O)OC[C@H]1O[C@@H](c2csc3c(NCC4CC4)ncnc23)[C@H](O)[C@@H]1O [Compound 26, (5-(4-(cyclopropylmethylamino)thieno[3,2-d]pyrimidin-7-yl)-3,4-dihydroxytetrahydrofuran-2-yl)methyl sulfamate]
4.30 to 5.30		COCCNc1ncnc2c([C@@H]3O[C@H](COS(N)(=O)=O)[C@@H](O)[C@H]3O)csc12 [Compound 28, (3,4-dihydroxy-5-(4-(2-methoxyethylamino)thieno[3,2-d]pyrimidin-7-yl)tetrahydrofuran-2-yl)methyl sulfamate]
